The record followed here is US7468281B2, “Hollow fiber membrane sample preparation devices” (priority 2001, dated 2008).

What all share (format): physicochemical
A short description of series [1]: LPME of drugs from human plasma, urine and whole blood with vial format device, CZE analysis.
Series [2] in a line: LPME of seven basic drugs with different hollow fibres (polypropylene, polysulfone).
A short description of series [3]: LPME of seven basic drugs from water with different acidic acceptor phases, CE analysis. The settings on record: water sample, 100 ng/mL.
Series [4] is described as follows: LPME of eight basic drugs from water with phosphate buffer acceptors of different pH, CE analysis.
Setting [5] is: human plasma, same fashion as tramadol example, running buffer 75 mM phosphate pH 3.0 + triethylamine + hydroxypropyl-β-cyclodextrin.
[6] abbreviates: human plasma 0.5 mL, hexyl ether, 0.1 M hydrochloric acid (17 μL) acceptor, 45 minutes, tramadol example.
The mark [7] stands for this setting: hollow fibre Polypropylene, 280 μm ID, hexyl ether, 0.01 M hydrochloric acid acceptor.
Setting [8] is: hollow fibre Polypropylene, 600 μm ID, hexyl ether, 0.01 M hydrochloric acid acceptor.
Where [9] appears, read: hollow fibre Polysulfone, 500 μm ID, hexyl ether, 0.01 M hydrochloric acid acceptor.
Where [10] appears, read: human urine 2.0 mL, hexyl ether, 0.01 M hydrochloric acid acceptor, 45 minutes.
Where [11] appears, read: acceptor phase 10 mM CH3COOH, measured pH 3.3.
Setting [12] is: acceptor phase 10 mM H2S04, measured pH 2.1.
[13] abbreviates: acceptor phase 10 mM H3PO4, measured pH 2.5.
Where [14] appears, read: acceptor phase 10 mM HCOOH, measured pH 3.1.
The mark [15] stands for this setting: acceptor phase 10 mM HCl, measured pH 2.1.
The mark [16] stands for this setting: acceptor phase 10 mM HNO3, measured pH 1.9.
The mark [17] stands for this setting: acceptor phase 10 mM acetate, measured pH 4.8.
[18] abbreviates: acceptor phase 10 mM phosphate, measured pH 3.3.
Setting [19] is: acceptor phase 100 mM CH3COOH, measured pH 2.7.
The mark [20] stands for this setting: acceptor phase 100 mM H2S04, measured pH 1.3.
Setting [21] is: acceptor phase 100 mM H3PO4, measured pH 1.8.
The mark [22] stands for this setting: acceptor phase 100 mM HCOOH, measured pH 2.3.
[23] abbreviates: acceptor phase 100 mM HCl, measured pH 1.2.
[24] abbreviates: acceptor phase 100 mM phosphate, measured pH 3.0.
Setting [25] is: 10 mM phosphate buffer acceptor pH 2.5, 60 minutes.
[26] abbreviates: 10 mM phosphate buffer acceptor pH 3.5, 60 minutes.
Where [27] appears, read: 10 mM phosphate buffer acceptor pH 4.5, 60 minutes.
Where [28] appears, read: 10 mM phosphate buffer acceptor pH 5.5, 60 minutes.
Where [29] appears, read: 10 mM phosphate buffer acceptor pH 6.5, 60 minutes.
[30] abbreviates: 10 mM phosphate buffer acceptor pH 7.5, 60 minutes.
The mark [31] stands for this setting: acceptor phase 100 mM HNO3, measured pH 1.1.
[32] abbreviates: human plasma 250 μL, hexyl ether membrane, 0.01 M hydrochloric acid acceptor, 30 minutes.
[33] abbreviates: human whole blood 250 μL, hexyl ether membrane, 0.01 M hydrochloric acid acceptor, 30 minutes.
The mark [34] stands for this setting: human urine or plasma 2.5 mL, 1-octanol membrane, 0.1M hydrochloric acid acceptor, 45 minutes.

Each structure is given as a SMILES string. Read-outs that look alike come from different tables or passages of the source.

Take `CN1CCN2c3ccccc3Cc3ccccc3C2C1` (stereo not drawn) [Mianserine, mianserine]: in series [1] (setting [5]), the Enrichment is recorded as 15 fold and the Extraction efficiency was determined as 50%.

Turning to `CNCCCC1(c2ccc(F)cc2)OCc2cc(C#N)ccc21` (stereo not drawn) [N-desmethyl metabolite, N-desmethylcitalopram], the Preconcentration in series [1] (patient plasma 1 mL, hexyl ether membrane, 20 mM phosphate buffer pH 2.75 acceptor, 45 minutes) amounted to 30 fold.

With `COc1ccc2cc([C@H](C)C(=O)O)ccc2c1` [Naproxen, naproxen], the Enrichment in series [1] came to 82 fold.

As for `COc1cccc(C2(O)CCCCC2CN(C)C)c1` (stereo not drawn) [Tramadol, tramadol], in series [1] (setting [6]), the Enrichment amounted to 30 fold and the Extraction efficiency is on record as 100%.

`CC(N)Cc1ccccc1` (stereo not drawn) [amphetamine]: the “Enrichment (average of 3 replicates)” value was 104 in series [2] (setting [7]); 82 in series [2] (setting [8]); 22 in series [2] (setting [9]); 66 in series [3] (setting [11]); 104 in series [3] (setting [12]); 72 in series [3] (setting [13]). Moreover, the “Enrichment (average of 3 replicates)” value in series [3] (setting [14]) was 72; in series [3] (setting [15]) it was 82; in series [3] (setting [16]) it was 48; in series [3] (setting [17]), 90; in series [3] (setting [18]), 123; in series [3] (setting [19]) it was 48. The “Enrichment (average of 3 replicates)” value in series [3] (setting [20]) is reported as 98; in series [3] (setting [21]), 58; in series [3] (setting [22]), 5; in series [3] (setting [23]), 74; in series [3] (setting [24]), 128; in series [4] (setting [25]), 107. The “Enrichment (average of 3 replicates)” value in series [4] (setting [26]) is 102; in series [4] (setting [27]), 104; in series [4] (setting [28]), 93; in series [4] (setting [29]) it was 88; in series [4] (setting [30]) it was 64. This compound also came in with an Enrichment in series [1] (setting [10]) of 77. The same compound registered an Extraction efficiency in series [1] (setting [10]) of 97%.

Regarding `CN1CCN(C(c2ccccc2)c2ccc(Cl)cc2)CC1` (stereo not drawn) [chlorcyclizine], the “Enrichment (average of 3 replicates)” value in series [2] (setting [7]) is listed as 106; in series [2] (setting [8]), 126; in series [2] (setting [9]) it was 110; in series [3] (setting [11]) it was 32; in series [3] (setting [12]), 122; in series [3] (setting [13]), 118. The “Enrichment (average of 3 replicates)” value in series [3] (setting [14]) is 72; in series [3] (setting [15]) it was 126; in series [3] (setting [16]), 120; in series [3] (setting [17]), 3; in series [3] (setting [18]), 83; in series [3] (setting [19]), 66. Further, the “Enrichment (average of 3 replicates)” value in series [3] (setting [20]) was found to be 136; in series [3] (setting [21]) it was 80; in series [3] (setting [22]), 93; in series [3] (setting [23]) it was 138; in series [3] (setting [31]), 136; in series [3] (setting [24]), 93. For the same compound, the “Enrichment (average of 3 replicates)” value was 123 in series [4] (setting [25]), 32 in series [4] (setting [26]) and 5 in series [4] (setting [27]). In addition, the Enrichment in series [1] (human plasma 2.0 mL, hexyl ether, 0.01 M hydrochloric acid acceptor, 45 minutes) is on record as 52.

On to `CN1C(=O)CN=C(c2ccccc2)c2cc(Cl)ccc21` [diazepam], for which the figures for the “Enrichment (average of 3 replicates)” value in series [4] (pH 2.5) and in series [4] (pH 3.5) were 3 and 2, respectively.

As to `O=C(CCCN1CCC(O)(c2ccc(Cl)cc2)CC1)c1ccc(F)cc1` [haloperidol], the “Enrichment (average of 3 replicates)” value in series [2] is given as 131.

For `CCC(=O)C(CC(C)N(C)C)(c1ccccc1)c1ccccc1` (stereo not drawn) [methadone], the “Enrichment (average of 3 replicates)” value worked out at 138 in series [2] (setting [7]); 138 in series [2] (setting [8]); 139 in series [2] (setting [9]); 86 in series [3] (setting [11]); 157 in series [3] (setting [12]); 96 in series [3] (setting [13]). Moreover, the “Enrichment (average of 3 replicates)” value in series [3] (setting [14]) was 114; in series [3] (setting [15]) it was 138; in series [3] (setting [16]) it was 141; in series [3] (setting [17]), 42; in series [3] (setting [18]), 134; in series [3] (setting [19]), 84. In addition, the “Enrichment (average of 3 replicates)” value is recorded as 150 in series [3] (setting [20]); 77 in series [3] (setting [21]); 91 in series [3] (setting [22]); 134 in series [3] (setting [23]); 107 in series [3] (setting [31]); 42 in series [3] (acceptor phase 100 mM acetate, measured pH 4.8). The “Enrichment (average of 3 replicates)” value in series [3] (setting [24]) is given as 117. Also, the Enrichment in series [1] (setting [32]) is on record as 6.4; in series [1] (setting [33]), 5.4.

For `CN[C@@H](C)Cc1ccccc1` [methamphetamine], the “Enrichment (average of 3 replicates)” value in series [2] (setting [7]) is listed as 123; in series [2] (setting [8]), 122; in series [2] (setting [9]), 46; in series [3] (setting [11]), 93; in series [3] (setting [12]), 141; in series [3] (setting [13]), 96. Further, the “Enrichment (average of 3 replicates)” value is 106 in series [3] (setting [14]); 122 in series [3] (setting [15]); 125 in series [3] (setting [16]); 128 in series [3] (setting [17]); 136 in series [3] (setting [18]); 77 in series [3] (setting [19]). Also, the “Enrichment (average of 3 replicates)” value is 134 in series [3] (setting [20]); 83 in series [3] (setting [21]); 13 in series [3] (setting [22]); 120 in series [3] (setting [23]); 133 in series [3] (setting [24]); 150 in series [4] (setting [25]). Also, the “Enrichment (average of 3 replicates)” value in series [4] (setting [26]) is 146; in series [4] (setting [27]), 150; in series [4] (setting [28]), 134; in series [4] (setting [29]), 122; in series [4] (setting [30]) it was 88. Besides, in series [2] (polypropylene fiber, 600 μm inner diameter, hexyl ether, 0.01 M hydrochloric acid), the “Enriched to the extent of” value was 82%. In addition, the “Recovered/enriched to the extent of” value in series [2] (polysulfone fiber, 500 μm inner diameter, hexyl ether, 0.01 M hydrochloric acid) amounted to 22%. The Enrichment is 8.1 in series [1] (setting [32]); 75 fold in series [1] (setting [34]); “one hundred” in series [1] (human whole blood 2.5 mL, 280 μm ID polypropylene fiber, hexyl ether, 17 μL 0.1 M hydrochloric acid acceptor, 30 minutes); 7.8 in series [1] (setting [33]). For the same compound, the Extraction efficiency in series [1] (setting [32]) is 81%; in series [1] (setting [34]), 75%; in series [1] (setting [33]), 78%.

Turning to `COc1ccc2c(c1OC)C(=O)O[C@@H]2[C@H]1c2c(cc3c(c2OC)OCO3)CCN1C` [noscapin], the “Enrichment (average of 3 replicates)” value in series [4] (setting [25]) is listed as 8; in series [4] (setting [26]), 2.

In series [1] (setting [32]), `CC(CN1c2ccccc2Sc2ccccc21)N(C)C` (stereo not drawn) [promethazine] showed an Enrichment of 5.5 and an Extraction efficiency of 55%. In series [1] (setting [33]), this compound showed an Enrichment of 4.3 and an Extraction efficiency of 43%.

Turning to `COC(=O)[C@H]1[C@H]2C[C@@H]3c4[nH]c5cc(OC)ccc5c4CCN3C[C@H]2C[C@@H](OC(=O)c2cc(OC)c(OC)c(OC)c2)[C@@H]1OC` [reserpin], the “Enrichment (average of 3 replicates)” value in series [4] (setting [25]) is 18; in series [4] (setting [26]), 2.
